Experimental data as given in patent US20100021505A1, “Composition and method to prevent or reduce diarrhea and steatorrhea in HIV patients” (priority 2008, published 2010).
“Also recorded” adds a separate entry of the source.

Key:
HIV patients = conditions: Kakuda et al. 1998; cited from earlier work
pancrelipase [1] = assay: Pancrelipase reactivation by colipase; type: biochemical; conditions: for % Lipase Activity with Colipase: colipase 5 μg/mL; for effect of added colipase on the inhibition of pancrelipase (in words): excess colipase added to reaction mixture
Method: In brief, the above lipase assay procedure was used with the following variation: colipase solution replaced the distilled water so the concentration of colipase in the final reaction mixture was 5 μg/mL.

pancrelipase [2] = biological target: T1, pancrelipase (Sus scrofa, UniProt P00591); assay: Lipase assay (USP titrimetric): inhibition of pancrelipase by HAART drugs and excipients; type: biochemical
T1 sequence (P00591 1-450): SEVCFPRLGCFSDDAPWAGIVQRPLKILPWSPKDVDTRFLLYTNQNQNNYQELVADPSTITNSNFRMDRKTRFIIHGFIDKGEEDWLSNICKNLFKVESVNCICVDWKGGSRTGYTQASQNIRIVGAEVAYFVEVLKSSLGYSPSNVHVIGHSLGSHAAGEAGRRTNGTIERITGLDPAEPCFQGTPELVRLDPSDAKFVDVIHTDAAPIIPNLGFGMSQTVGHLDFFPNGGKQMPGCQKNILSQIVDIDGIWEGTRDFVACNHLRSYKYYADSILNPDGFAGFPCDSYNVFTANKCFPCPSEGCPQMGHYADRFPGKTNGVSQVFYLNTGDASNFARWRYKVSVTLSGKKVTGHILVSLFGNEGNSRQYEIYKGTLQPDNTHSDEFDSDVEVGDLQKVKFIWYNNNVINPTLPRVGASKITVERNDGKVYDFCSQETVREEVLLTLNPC
Method: The enzyme sources consisted of USP Reference Standard Pancrelipase, USP Reference Standard Trypsin, colipase (Sigma Chemical Co.), and enterokinase (ICN Biochemicals). Appropriate concentrations of enzyme reference standard were prepared in cold distilled water, as described in USP reference assay procedures. The Infectious Disease Clinic in Somerville, N.J. provided the HAART medications. Pure drugs could not be obtained so commercial drug preparations were used in the assays.
One unit (U) of lipase activity is defined as the amount of enzyme that liberates one μequivalent of free fatty acid from triglycerides per minute at pH 9.0 and 37° C. Lipase activity (U/mg) was determined by a lipase specific titrimetric assay described in the United States Pharmacopeia (USP), Volume XXII. In brief, the substrate consists of 10% olive oil in acacia solution, 40-mg/mL sodium taurocholate, 0.075M calcium chloride, 0.05M Tris in 3.0M NaCl buffer solution (pH 7.5) and distilled water. The emulsified substrate is incubated at 37° C. and brought to pH 9.0 with 0.02N NaOH. At time zero, 1.0 mL of enzyme solution was added. A pH stat autotitrator was used to maintain pH 9.0 and the volume of 0.02 N NaOH dispensed per unit time was recorded for five (5) minutes. From the initial slope of this plot, lipase activity was calculated using the following equation: […]

pancrelipase [3] = assay: Recovery of pancrelipase activity after inhibition, by addition of excess lipase; type: biochemical
Method: The above procedure was used to monitor pancrelipase activity with the exception that drug was not preincubated with the substrate. At time zero 1.0 mL of pancrelipase was added to initiate the reaction. At five (5) minutes, 1.0 mL of HAART drug solution was added to the reaction mixture to cause inhibition of lipase activity. At twelve (12) minutes an additional 1.0 mL of pancrelipase was added to the reaction mixture to overcome HAART inhibition. The reaction was monitored for twenty (20) minutes.

Compound | HIV patients experiencing diarrhea (HIV patients) | % Lipase Activity No Colipase (pancrelipase [1]; Drug Conc. 0.002 mg/mL) [%] | % Lipase Activity with Colipase (pancrelipase [1]; Drug Conc. 0.002 mg/mL) [%] | effect of added colipase on the inhibition of pancrelipase (in words) (pancrelipase [1]) | inhibition of pancrelipase (in words) (pancrelipase [2]) | % Pancrelipase Activity (pancrelipase [3]; after addition of drug solution at 5 minutes, before excess lipase) [%] | % Reactivation of Pancrelipase (pancrelipase [3]; after additional 1.0 mL of pancrelipase at 12 minutes) [%] | % Lipase Activity No Colipase (pancrelipase [1]; Drug Conc. 10.0 mg/mL) [%] | % Lipase Activity with Colipase (pancrelipase [1]; Drug Conc. 10.0 mg/mL) [%]
Cc1c(O)cccc1C(=O)N[C@@H](CSc1ccccc1)[C@H](O)CN1C[C@H]2CCCC[C@H]2C[C@H]1C(=O)NC(C)(C)C [nelfinavir, Nelfinavir] | 12-20% |  |  |  |  |  |  |  | 
CCCCCCCCCCC[C@@H](C[C@@H]1OC(=O)[C@H]1CCCCCC)OC(=O)[C@H](CC(C)C)NC=O [ORLISTAT ®, reference compound] |  | 37 | 29 | no effect |  |  |  |  | 
D-α-tocopheryl polyethylene glycol 1000 succinate [TPGS] |  |  |  | Pancrelipase inhibition was reversed; also recorded: restored pancrelipase activity | significant inhibition; also recorded: significantly inhibited | 55 | 98 | 21 | 79
